Results on eight compounds are retold here after patent US10768185B2, “Tenofovir detection assay” (TRUSTEES OF BOSTON UNIVERSITY, priority 2017, dated 2020).

Counter-ions that a name gives are not always drawn.

The test system of data set [1] is anti-TFV antibody conjugated to gold nanoparticles. Nature of the data set: Lateral flow assay specificity test. The settings on record: 100 μg/mL in urine. Type of data set: binding, rabbit. How it is done:
(§1) Hi-Flow Plus HF180 nitrocellulose sheets were laser cut into lateral flow strips and chromatography paper was adhered to the end of the strips as a waste reservoir using autoclave tape. Samples of TFV were prepared at varying concentrations between 10 ng/mL and 100 μg/mL in urine alongside a no TFV control sample. For each sample, 1 μL of conjugated gold nanoparticles was added to 244, of PBS and 804, of sample was added. The mixture was allowed to incubate at room temperature on a rotator for at least 30 minutes. 0.3 μL of anti-rabbit antibody was spotted on the strips as a control spot. 0.3 μL of 2.5 μg/mL BSA-TFV was spotted as the test spot on the strips upstream of the control spot. The spots were allowed to dry and another 0.3 μL of BSA-TFV was spotted on top of the test spot. After incubation, concentrated TBS-T was added to each sample such that the final Tween 20 concentration was 0.05%. One end of each of the lateral flow strips was dipped vertically into the sample tubes such that the solution ran up the nitrocellulose strip and into the waste reservoir via capillary action. The strips were incubated in the solution for 25-30 minutes before being photographed with a Nikon DS-Ri2 camera and analyzed via ImageJ.
The protocol is the same as the competitive lateral flow assay. Solutions of TFV, AZT, Abcavir, AMP, and adenine were made at concentrations of 100 μg/mL alongside a urine only control sample.

Data set [2] concerns anti-TFV polyclonal antibody. Nature of the data set: Competitive dot blot assay. Type of data set: binding, rabbit. The settings on record: spiked urine, HRP-coupled secondary antibody. On the procedure:
Nitrocellulose strips were cut to dimensions of approximately 7 mm by 25 mm. BSA-TFV solution in PBS was diluted down to either 1 μg/mL or 100 ng/mL representing about a 1000-fold or 10,000-fold dilution factor. The strips were then spotted 3 times with luL of diluted BSA-TFV and allowed to dry. The strips were blocked with 5% milk in tris-buffered saline with Tween 20 (TBS-T) for 30 minutes and washed three times with TBS-T. Samples of TFV were prepared at varying concentrations between 1 ng/mL and 1 μg/mL in either TBS-T or human urine alongside a no TFV control sample. Anti-TFV polyclonal antibody from raw serum (e.g., unpurified) was added to the TFV samples at a dilution of 1:50,000 and incubated at room temperature while rotating for at least 1 hour. The strips were incubated in the spiked urine or TBS-T solutions of TFV and anti-TFV polyclonal antibody at room temperature while rotating for 1 hour and washed three times with TBS-T followed by a high-salt (500 mM NaCl) TBS-T wash and a low-salt (50 mM NaCl) TBS-T wash. The strips were then incubated in a 1:8000 dilution in TBS-T of anti-Rabbit antibody conjugated to HRP at room temperature while rotating for 1 hour and washed three times with TBS-T. The HRP was then visualized by pico chemiluminescent substrate and chemiluminescent photographs were taken by a VersaDoc Imaging Model 4000 system from BioRad.

The conditions of data set [3]: cited from earlier work.
The test system of data set [4] is anti-TFV antibody conjugated to gold nanoparticles. Nature of the data set: Competitive gold nanoparticle lateral flow assay, sensitivity test. The format is binding, rabbit. On the procedure:
as §1
There was a statistically significant difference between groups as determined by one-way ANOVA (F(5,24)=15.0, p=1.02×10^−6).

The subject of data set [5] is anti-TFV polyclonal antibody. Nature of the data set: Immunoprecipitation of TFV by anti-TFV antibody, LC-MS readout. The format is binding, rabbit. The settings on record: mixture of 50 μg/mL TFV and 1 mg/mL AMP (AMP 20× higher), anti-TFV serum, Protein G beads. On the procedure:
LC-MS measurements were taken on an Agilent 1100 series LC/MSD with a Cortecs C18 column (90 Å, 2.7 μm, 4.6 mm×150 mm) from Waters (Milford, Mass.). Samples were dissolved in a solution of 9754, 0.6% trifluoroacetic acid in water and 254, methanol. 204, of sample was injected into a gradient mobile phase outlined in Table 1 at a flowrate of 0.6 mL/min into the column equilibrated at 45° C. and passed through the mass spectrometer set for positive polarity electrospray ionization (ESI+) at a range of 100-1500 m/z.
Two samples were prepared containing a mixture of 1004, of 50 μg/mL TFV and 100 μL of 1 mg/mL AMP. To one tube 375 μL of anti-TFV serum (+IP) was added and to the other 375 μL of PBS (−IP). The samples were incubated while rotating at 4° C. overnight. 3004, of Protein G bead suspension was added to the samples and further incubated at 4° C. for 1 hour. The samples were spun down for 1 minute at 3000 rpm and decanted. The supernatant from the (−IP) sample (−IPsup) was set aside. The beads were then washed and decanted four times with yeast lysis buffer (50 mM HEPES pH 7.6, 1 mM EDTA, 1% Triton X-100, 0.1% sodium deoxycholate, 140 mM NaCl), with the third wash being with a high salt yeast lysis buffer (500 mM NaCl). The beads were then heat eluted for 5 minutes at 95° C. into 100 μL of TE buffer. […]

For data set [6] the following is noted: cited from earlier work. The source holds these as a separate data set.

On to `Nc1nc(NC2CC2)c2ncn([C@H]3C=C[C@@H](CO)C3)c2n1` [Abcavir], for which the “staining of test area (no staining = positive for TFV)” value in data set [1] is “staining in both the test area and control area”.

On to `Nc1ncnc2nc[nH]c12` [Adenine, adenine], for which the “staining of test area (no staining = positive for TFV)” value in data set [1] is “staining in both the test area and control area”.

Take `C[C@H](Cn1cnc2c(N)ncnc21)OCP(=O)(O)O` [TFV, Tenofovir]: the “lower limit of detection” value in data set [2] was 35 nM. Further, the “concentration of TFV in urine” value in data set [3] (300 mg ingested only once, after 24-72 hours) is 1000 to 10000 ng/mL. Further, the “urinary concentration of TFV relative to plasma concentration” value in data set [3] (patients on TFV regimens) is recorded as “over 100 ×”. The “staining of test area (no staining = positive for TFV)” value in data set [1] is recorded as “no staining”. Further, the “test spot intensity versus no-TFV control (ANOVA, Tukey post hoc)” value in data set [4] (1 μg/mL, 10 μg/mL and 100 μg/mL TFV in urine, N=5) is reported as “statistically significant differences”. Moreover, the “lower limit of detection / sensitivity” value in data set [4] (spiked urine, preliminary) stood at 1 µg/mL. Also, in data set [5], the “presence in immunoprecipitation product by LC-MS” value is “presence”.

Consider `Cc1cn([C@H]2C[C@H](N=[N+]=[N-])[C@@H](CO)O2)c(=O)[nH]c1=O` [AZT], for which the “staining of test area (no staining = positive for TFV)” value in data set [1] is “staining in both the test area and control area”.

`Nc1ncnc2c1ncn2[C@@H]1O[C@H](COP(=O)(O)O)[C@@H](O)[C@H]1O` [AMP, adenosine monophosphate]: the “staining of test area (no staining = positive for TFV)” value in data set [1] was “staining in both the test area and control area”. Further, the “presence in immunoprecipitation product by LC-MS” value in data set [5] is “absence”.

For the compound `NNC(=O)c1ccncc1` [INH, isoniazid], in data set [6] (typical dose 250 mg/day for a 50 kg patient), the “urinary concentrations of INA” value is roughly 100 µg/mL. The “oral dose recovered in the urine as INA” value in data set [6] (within 24 hr) was 30-40%.

On to `CC(C)OC(=O)OCOP(=O)(CO[C@H](C)Cn1cnc2c(N)ncnc21)OCOC(=O)OC(C)C` [TDF, tenofovir disoproxil fumarate], for which, in data set [3] (patient taking 300 mg TDF daily), the “urine concentration of TFV” value is reported as “around 23 μg/mL”.

Turning to `CC(C)OC(=O)[C@H](C)N[P@](=O)(CO[C@H](C)Cn1cnc2c(N)ncnc21)Oc1ccccc1` [TAF, tenofovir alafenamide], the “decrease in TFV plasma concentrations” value in data set [3] (TAF 25 mg per day, compared with TDF) is on record as roughly 10 ×.
